From US4492693A, “Benzothienylglycyl cephalosporin derivatives” (priority 1983, dated 1985)
≈ marks a conversion by molar mass, not a printed value. Read-outs that look alike come from different tables or passages of the source.

Columns and labels:
Bacteroides fragilis [1] = experiment: Expanded anaerobic Spectrum MIC (Table IV); assay type: cell-based
Haemophilus influenzae = experiment: Expanded H. influenzae Spectrum MIC (Table IV); assay type: cell-based
[2] = tested on: β-lactamase, organism 265A; experiment: Stability to β-lactamase (Table V); assay type: biochemical; details: lower numbers mean greater stability
[3] = tested on: β-lactamase, organism PS185; experiment: Stability to β-lactamase (Table V); assay type: biochemical; details: lower numbers mean greater stability
[4] = tested on: β-lactamase, organism TEM; assay type: biochemical; details: lower numbers mean greater stability
[5] = tested on: β-lactamase, organism 1082E; experiment: Stability to β-lactamase (Table V); assay type: biochemical; details: lower numbers mean greater stability
[6] = tested on: β-lactamase, organism 1313G; experiment: Stability to β-lactamase (Table V); assay type: biochemical; details: lower numbers mean greater stability
Strep. A = experiment: Agar Dilution MIC (Table I); assay type: cell-based; details: read-out: Agar Dilution MIC
Strep. PN = experiment: Agar Dilution MIC (Table I); assay type: cell-based; details: strain PARK
Strep. D = experiment: Agar Dilution MIC (Table I); assay type: cell-based; details: read-out: Agar Dilution MIC
From the text: (§1) A typical and preferred compound provided by this invention is 7-(3-benzothienyl)glycylamido-3-methyl-3-cephem-4-carboxylic acid, the compound illustrated in Example 9. The antibacterial activity of this compound has been determined in standard in vitro agar dilution assays against a variety of gram positive and gram negative microorganism. The following Tables present typical minimum inhibitory concentrations (MIC's) in μg/ml for several compounds of the invention when evaluated against the indicated microorganisms. MIC's for several known compounds are also presented for comparison.
Agar Dilution MIC (μg/ml)

H. influ. = experiment: Agar Dilution MIC (Table I); assay type: cell-based; details: read-out: Agar Dilution MIC
E. coli = experiment: Agar Dilution MIC (Table I); assay type: cell-based; details: Escherichia coli
Klebsiella = experiment: Agar Dilution MIC (Table I); assay type: cell-based; details: Klebsiella, read-out: Agar Dilution MIC
H. influenzae = experiment: Expanded Spectrum MIC (Table II); assay type: cell-based; details: Haemophilus influenzae
From the text: as §1
(§2) Expanded Spectrum MIC (μg/ml)

Staph. aureus = experiment: Expanded Spectrum MIC (Table II); assay type: cell-based; details: Staphylococcus aureus
From the text: as §1, §2

Bacteroides corrodens = experiment: Susceptibility of Anaerobic Bacteroides Isolates by the Agar-Dilution Method (Table III); assay type: cell-based; details: Eikenella corrodens; strain 1874; readings 24 hrs. after incubation
From the text: as §1
(§3) Susceptibility of Anaerobic Bacteroides Isolates by the
(§4) Agar-Dilution Method MIC (μg/ml) readings 24 hrs. after incubation

Bacteroides fragilis [7] = experiment: as above; assay type: cell-based; details: 24 h
From the text: as §1, §3, §4

[8] = tested on: Bacteroides thetaiotaomicron; experiment: as above; assay type: cell-based; details: 24 h
From the text: as §1, §3, §4

bacteria = experiment: Antibacterial activity (general statements); assay type: cell-based; details: anaerobic bacteria and Haemophilus influenzae, more strains
[9] = read-out: MIC mean, mean over strains
[10] = mean over strains, read-out: MIC mean

## N[C@@H](C(=O)N[C@@H]1C(=O)N2C(C(=O)O)=C(Cl)CS[C@H]12)c1ccccc1 [cefaclor]
Bacteroides fragilis [1]; read-out: MIC Geometric mean, geometric mean over strains
  MIC: 32 µg/mL (≈ 87 µM)
Bacteroides fragilis [1]; [9]
  MIC: 39 µg/mL (≈ 106 µM)
Bacteroides fragilis [1]; strain 180-821
  MIC: 64 µg/mL (≈ 174 µM)
Bacteroides fragilis [1]; strain 10668
  MIC: 64 µg/mL (≈ 174 µM)
Bacteroides fragilis [1]; strain 10683
  MIC: 16 µg/mL (≈ 43.5 µM)
Bacteroides fragilis [1]; strain 10695
  MIC: 32 µg/mL (≈ 87 µM)
Bacteroides fragilis [1]; strain 10732
  MIC: 16 µg/mL (≈ 43.5 µM)
Bacteroides fragilis [1]; strain 10750
  MIC: > 64 µg/mL
Bacteroides fragilis [1]; strain 10774
  MIC: > 64 µg/mL
Bacteroides fragilis [1]; strain 10817
  MIC: 64 µg/mL (≈ 174 µM)
Bacteroides fragilis [1]; strain 10837
  MIC: > 64 µg/mL
Bacteroides fragilis [1]; strain 107266
  MIC: 16 µg/mL (≈ 43.5 µM)
Bacteroides fragilis [1]; strain 107268
  MIC: 16 µg/mL (≈ 43.5 µM)
Bacteroides fragilis [1]; strain 108133
  MIC: 32 µg/mL (≈ 87 µM)
Haemophilus influenzae; read-out: MIC Geometric Mean, geometric mean over strains
  MIC: 2 µg/mL (≈ 5.44 µM)
Haemophilus influenzae; [9]
  MIC: 3 µg/mL (≈ 8.16 µM)
Haemophilus influenzae; strain 101
  MIC: 2 µg/mL (≈ 5.44 µM)
Haemophilus influenzae; strain 102
  MIC: 16 µg/mL (≈ 43.5 µM)
Haemophilus influenzae; strain 103
  MIC: 2 µg/mL (≈ 5.44 µM)
Haemophilus influenzae; strain 104
  MIC: 1 µg/mL (≈ 2.72 µM)
Haemophilus influenzae; strain 105
  MIC: 1 µg/mL (≈ 2.72 µM)
Haemophilus influenzae; strain 106
  MIC: 2 µg/mL (≈ 5.44 µM)
Haemophilus influenzae; strain 107
  MIC: 2 µg/mL (≈ 5.44 µM)
Haemophilus influenzae; strain 108
  MIC: 1 µg/mL (≈ 2.72 µM)
Haemophilus influenzae; strain 109
  MIC: 2 µg/mL (≈ 5.44 µM)
Haemophilus influenzae; strain 110
  MIC: 1 µg/mL (≈ 2.72 µM)
Haemophilus influenzae; strain 111
  MIC: 1 µg/mL (≈ 2.72 µM)
Haemophilus influenzae; strain 112
  MIC: 2 µg/mL (≈ 5.44 µM)
Haemophilus influenzae; strain 113
  MIC: 2 µg/mL (≈ 5.44 µM)
Haemophilus influenzae; strain 114
  MIC: 1 µg/mL (≈ 2.72 µM)
[2]
  Stability to β-lactamase: 138
[3]
  Stability to β-lactamase: 71
[4]
  Stability to β-lactamase: 23
[5]
  Stability to β-lactamase: 65
[6]
  Stability to β-lactamase: 4605

## CC1=C(C(=O)O)N2C(=O)C(NC(=O)C(N)c3csc4ccccc34)C2SC1 (centres unmarked) [Ex. 9, 7-(3-Benzothienyl)glycylamido-3-methyl-3-cephem-4-carboxylic acid]
Strep. A
  MIC: 0.125 µg/mL (≈ 0.31 µM)
Strep. PN
  MIC: 0.5 µg/mL (≈ 1.24 µM)
Strep. D; strain 2041
  MIC: 64 µg/mL (≈ 159 µM)
Strep. D; strain X66
  MIC: 128 µg/mL (≈ 317 µM)
H. influ.; strain 76
  MIC: 0.5 µg/mL (≈ 1.24 µM)
H. influ.; strain C.L.
  MIC: 2 µg/mL (≈ 4.96 µM)
E. coli; strain EC14
  MIC: 32 µg/mL (≈ 79.3 µM)
E. coli; strain N10
  MIC: 128 µg/mL (≈ 317 µM)
E. coli; strain TEM
  MIC: 32 µg/mL (≈ 79.3 µM)
Klebsiella; strain KAE
  MIC: 128 µg/mL (≈ 317 µM)
Klebsiella; strain X26
  MIC: 2 µg/mL (≈ 4.96 µM)
Klebsiella; strain X68
  MIC: 128 µg/mL (≈ 317 µM)
H. influenzae; strain 76
  MIC: 1 µg/mL (≈ 2.48 µM)
H. influenzae; strain 105
  MIC: 1 µg/mL (≈ 2.48 µM)
H. influenzae; strain 158
  MIC: 1 µg/mL (≈ 2.48 µM)
H. influenzae; strain 164
  MIC: 1 µg/mL (≈ 2.48 µM)
H. influenzae; strain 169
  MIC: 1 µg/mL (≈ 2.48 µM)
H. influenzae; strain 171
  MIC: 1 µg/mL (≈ 2.48 µM)
H. influenzae; strain 312
  MIC: 1 µg/mL (≈ 2.48 µM)
H. influenzae; strain 1683
  MIC: 0.5 µg/mL (≈ 1.24 µM)
H. influenzae; strain 1930
  MIC: 1 µg/mL (≈ 2.48 µM)
H. influenzae; strain 4842
  MIC: 1 µg/mL (≈ 2.48 µM)
H. influenzae; strain C.L.
  MIC: 2 µg/mL (≈ 4.96 µM)
H. influenzae; strain HESS
  MIC: 1 µg/mL (≈ 2.48 µM)
H. influenzae; strain M366
  MIC: 64 µg/mL (≈ 159 µM)
H. influenzae; strain M370
  MIC: 1 µg/mL (≈ 2.48 µM)
H. influenzae; strain M371
  MIC: 1 µg/mL (≈ 2.48 µM)
H. influenzae; strain R465
  MIC: 64 µg/mL (≈ 159 µM)
H. influenzae; strain STEL
  MIC: 64 µg/mL (≈ 159 µM)
Staph. aureus; strain S224
  MIC: 1 µg/mL (≈ 2.48 µM)
Staph. aureus; strain S225
  MIC: 1 µg/mL (≈ 2.48 µM)
Staph. aureus; strain S226
  MIC: 2 µg/mL (≈ 4.96 µM)
Staph. aureus; strain S227
  MIC: 1 µg/mL (≈ 2.48 µM)
Staph. aureus; strain S228
  MIC: 1 µg/mL (≈ 2.48 µM)
Staph. aureus; strain S229
  MIC: 2 µg/mL (≈ 4.96 µM)
Staph. aureus; strain S230
  MIC: 1 µg/mL (≈ 2.48 µM)
Staph. aureus; strain S231
  MIC: 1 µg/mL (≈ 2.48 µM)
Staph. aureus; strain S234
  MIC: 2 µg/mL (≈ 4.96 µM)
Staph. aureus; strain S237
  MIC: 1 µg/mL (≈ 2.48 µM)
Staph. aureus; strain S238
  MIC: 2 µg/mL (≈ 4.96 µM)
Staph. aureus; strain S239
  MIC: 2 µg/mL (≈ 4.96 µM)
Bacteroides corrodens
  MIC: 32 µg/mL (≈ 79.3 µM)
Bacteroides fragilis [7]; strain 9, readings 24 hrs. after incubation
  MIC: 4 µg/mL (≈ 9.91 µM)
Bacteroides fragilis [7]; strain 103, readings 24 hrs. after incubation
  MIC: 32 µg/mL (≈ 79.3 µM)
Bacteroides fragilis [7]; strain 104, readings 24 hrs. after incubation
  MIC: 4 µg/mL (≈ 9.91 µM)
Bacteroides fragilis [7]; strain 106, readings 24 hrs. after incubation
  MIC: 4 µg/mL (≈ 9.91 µM)
Bacteroides fragilis [7]; strain 107, readings 24 hrs. after incubation
  MIC: 8 µg/mL (≈ 19.8 µM)
Bacteroides fragilis [7]; strain 108, readings 24 hrs. after incubation
  MIC: 4 µg/mL (≈ 9.91 µM)
Bacteroides fragilis [7]; strain 110, readings 24 hrs. after incubation
  MIC: 8 µg/mL (≈ 19.8 µM)
Bacteroides fragilis [7]; strain 111, readings 24 hrs. after incubation
  MIC: 64 µg/mL (≈ 159 µM)
Bacteroides fragilis [7]; strain 1877, readings 24 hrs. after incubation
  MIC: 8 µg/mL (≈ 19.8 µM)
[8]; strain 1438, readings 24 hrs. after incubation
  MIC: 4 µg/mL (≈ 9.91 µM)
[8]; strain 1900A, readings 24 hrs. after incubation
  MIC: 16 µg/mL (≈ 39.7 µM)
Bacteroides fragilis [1]; geometric mean over strains, read-out: MIC Geometric mean
  MIC: 0.7 µg/mL (≈ 1.73 µM)
Bacteroides fragilis [1]; [10]
  MIC: 1.2 µg/mL (≈ 2.97 µM)
Bacteroides fragilis [1]; strain 180-821, read-out: MIC
  MIC: 0.5 µg/mL (≈ 1.24 µM)
Bacteroides fragilis [1]; strain 10668, read-out: MIC
  MIC: 0.5 µg/mL (≈ 1.24 µM)
Bacteroides fragilis [1]; strain 10683, read-out: MIC
  MIC: 0.5 µg/mL (≈ 1.24 µM)
Bacteroides fragilis [1]; strain 10695, read-out: MIC
  MIC: 0.5 µg/mL (≈ 1.24 µM)
Bacteroides fragilis [1]; strain 10732, read-out: MIC
  MIC: 0.5 µg/mL (≈ 1.24 µM)
Bacteroides fragilis [1]; strain 10750, read-out: MIC
  MIC: 8 µg/mL (≈ 19.8 µM)
Bacteroides fragilis [1]; strain 10774, read-out: MIC
  MIC: 1 µg/mL (≈ 2.48 µM)
Bacteroides fragilis [1]; strain 10817, read-out: MIC
  MIC: 0.5 µg/mL (≈ 1.24 µM)
Bacteroides fragilis [1]; strain 10837, read-out: MIC
  MIC: 0.5 µg/mL (≈ 1.24 µM)
Bacteroides fragilis [1]; strain 107266, read-out: MIC
  MIC: 0.5 µg/mL (≈ 1.24 µM)
Bacteroides fragilis [1]; strain 107268, read-out: MIC
  MIC: 2 µg/mL (≈ 4.96 µM)
Bacteroides fragilis [1]; strain 108133, read-out: MIC
  MIC: 0.5 µg/mL (≈ 1.24 µM)
Haemophilus influenzae; geometric mean over strains, read-out: MIC Geometric Mean
  MIC: 1.1 µg/mL (≈ 2.73 µM)
Haemophilus influenzae; [10]
  MIC: 2.1 µg/mL (≈ 5.2 µM)
Haemophilus influenzae; strain 101, read-out: MIC
  MIC: 1 µg/mL (≈ 2.48 µM)
Haemophilus influenzae; strain 102
  MIC: 16 µg/mL (≈ 39.7 µM)
Haemophilus influenzae; strain 103, read-out: MIC
  MIC: 0.5 µg/mL (≈ 1.24 µM)
Haemophilus influenzae; strain 105, read-out: MIC
  MIC: 0.5 µg/mL (≈ 1.24 µM)
Haemophilus influenzae; strain 107, read-out: MIC
  MIC: 1 µg/mL (≈ 2.48 µM)
Haemophilus influenzae; strain 108, read-out: MIC
  MIC: 2 µg/mL (≈ 4.96 µM)
Haemophilus influenzae; strain 109, read-out: MIC
  MIC: 1 µg/mL (≈ 2.48 µM)
Haemophilus influenzae; strain 110, read-out: MIC
  MIC: 0.5 µg/mL (≈ 1.24 µM)
Haemophilus influenzae; strain 111, read-out: MIC
  MIC: 0.5 µg/mL (≈ 1.24 µM)
Haemophilus influenzae; strain 112, read-out: MIC
  MIC: 2 µg/mL (≈ 4.96 µM)
Haemophilus influenzae; strain 113, read-out: MIC
  MIC: 0.5 µg/mL (≈ 1.24 µM)
Haemophilus influenzae; strain 114, read-out: MIC
  MIC: 2 µg/mL (≈ 4.96 µM)
[2]
  Stability to β-lactamase: 14
[3]
  Stability to β-lactamase: 25
[4]
  Stability to β-lactamase: 3
[5]
  Stability to β-lactamase: 25
[6]
  Stability to β-lactamase: 210
bacteria
  potency compared to known antibiotics: much more potent than those with which it was compared
